Consider 7 compounds from patent US20200331925A1, “HETEROCYCLIC COMPOUNDS FOR THE TREATMENT OF ABNORMAL CELLULAR PROLIFERATION” (G1 Therapeutics, Inc., priority 2018, published 2020).

Format in all cases: biochemical
The target in one assay is CDK2/Cyclin E (Homo sapiens, UniProt P24941). In words: CDK2/Cyclin E kinase assay (Nanosyn, Caliper microfluidic). Conditions: 12-point dose-response, ATP at Km (100 μM), 3 hr. How it is done: (§1) Selected compounds disclosed herein were tested in kinase assays by Nanosyn (Santa Clara, Calif.) to determine their inhibitory effect on selected CDKs. The assays were performed using microfluidic kinase detection technology (Caliper Assay Platform). The compounds were tested in 12-point dose-response format in singlicate at Kmfor ATP. Phosphoacceptor substrate peptide concentration used was 1 μM for all assays and Staurosporine was used as the reference compound for all assays. Specifics of each assay are as described below: CDK2/Cyclin E: Enzyme concentration: 0.15 nM; ATP concentration: 100 μM; Incubation time: 3 hr.

The target of a further assay is CDK6/Cyclin D3 (Homo sapiens, UniProt Q00534). In words: CDK6/Cyclin D3 kinase assay (Nanosyn, Caliper microfluidic). Conditions: 12-point dose-response, ATP at Km (300 μM), 3 hr. How it is done:
as §1, with “CDK6/Cyclin D3:” for “CDK2/Cyclin E:”, “2” for “0.15”, “300” for “100”

The next assay concerns the target CDK3/Cyclin E (Homo sapiens, UniProt Q00526). Nature of the assay: CDK3/Cyclin E kinase assay (Nanosyn, Caliper microfluidic). The following applies: 12-point dose-response, ATP at Km (400 μM), 3 hr. How it is done: as §1, with “CDK3/Cyclin” for “CDK2/Cyclin”, “1” for “0.15”, “400” for “100”
A further assay addresses CDK9/Cyclin T (Homo sapiens, UniProt P50750). In words: CDK9/Cyclin T kinase assay (Nanosyn, Caliper microfluidic). The following applies: 12-point dose-response, ATP at Km (10 μM), 17 hr; Table 5. Here is the method:
as §1, with “[…]:” for “CDK2/Cyclin E:”, “5” for “0.15”, “10” for “100”, “17” for “3”

The target of another assay is CDK5/p35 (Homo sapiens, UniProt Q00535). In words: CDK5/p35 kinase assay (Nanosyn, Caliper microfluidic). The following applies: 12-point dose-response, ATP at Km (20 μM), 3 hr. Here is the method:
as §1, with “CDK5/p35:” for “CDK2/Cyclin E:”, “0.05” for “0.15”, “20” for “100”

For another assay, the target named is CDK1/Cyclin B1 (Homo sapiens, UniProt P06493). In words: CDK1/Cyclin B1 kinase assay (Nanosyn, Caliper microfluidic). The following applies: 12-point dose-response, ATP at Km (40 μM), 3 hr. How it is done:
as §1, with “CDK1/Cyclin B1:” for “CDK2/Cyclin E:”, “0.08” for “0.15”, “40” for “100”

The target in another assay is CDK2/Cyclin A (Homo sapiens, UniProt P24941). Nature of the assay: CDK2/Cyclin A kinase assay (Nanosyn, Caliper microfluidic). The following applies: 12-point dose-response, ATP at Km (50 μM), 3 hr. Here is the method: as §1, with “A:” for “E:”, “0.1” for “0.15”, “50” for “100”
For another assay, the target named is CDK5/p25 (Homo sapiens, UniProt Q00535). In words: CDK5/p25 kinase assay (Nanosyn, Caliper microfluidic). The following applies: 12-point dose-response, ATP at Km (20 μM), 3 hr. Here is the method: as §1, with “CDK5/p25:” for “CDK2/Cyclin E:”, “0.1” for “0.15”, “20” for “100”
Chain of CDK5/p25 (Q00535 whole entry): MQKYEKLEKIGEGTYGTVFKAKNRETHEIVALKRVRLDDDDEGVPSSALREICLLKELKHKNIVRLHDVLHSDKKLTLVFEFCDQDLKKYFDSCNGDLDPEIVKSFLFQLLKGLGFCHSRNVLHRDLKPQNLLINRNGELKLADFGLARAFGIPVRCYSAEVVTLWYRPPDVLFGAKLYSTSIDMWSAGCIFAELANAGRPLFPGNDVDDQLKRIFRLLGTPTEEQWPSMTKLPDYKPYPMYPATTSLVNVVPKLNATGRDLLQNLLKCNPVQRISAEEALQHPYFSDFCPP
Chain of CDK5/p25 (Q15078 99-307 partner limits assumed): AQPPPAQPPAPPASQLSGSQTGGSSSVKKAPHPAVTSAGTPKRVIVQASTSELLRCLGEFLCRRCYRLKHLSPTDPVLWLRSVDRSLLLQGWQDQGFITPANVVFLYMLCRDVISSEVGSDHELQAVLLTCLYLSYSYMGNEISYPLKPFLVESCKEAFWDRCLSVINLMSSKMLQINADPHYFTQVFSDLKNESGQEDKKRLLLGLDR
The target of the next assay is CDK4/Cyclin D1 (Homo sapiens, UniProt P11802). In words: CDK4/Cyclin D1 kinase assay (Nanosyn, Caliper microfluidic). Conditions: 12-point dose-response, ATP at Km (200 μM), 3 hr; Table 4. Here is the method:
as §1, with “CDK4/Cyclin D1:” for “CDK2/Cyclin E:”, “1” for “0.15”, “200” for “100”

Another assay deals with CDK7/Cyclin H (Homo sapiens, UniProt P50613). In words: CDK7/Cyclin H kinase assay (Nanosyn, Caliper microfluidic). The following applies: 12-point dose-response, ATP at Km (50 μM), 17 hr. Here is the method:
as §1, with “CDK7/Cyclin H:” for “CDK2/Cyclin E:”, “10” for “0.15”, “50” for “100”, “17” for “3”

Broadly, the IC50 is the concentration that inhibits the measured activity by half. Higher therefore signals a need for much substance.

Chain of CDK7/Cyclin H (P50613 whole entry): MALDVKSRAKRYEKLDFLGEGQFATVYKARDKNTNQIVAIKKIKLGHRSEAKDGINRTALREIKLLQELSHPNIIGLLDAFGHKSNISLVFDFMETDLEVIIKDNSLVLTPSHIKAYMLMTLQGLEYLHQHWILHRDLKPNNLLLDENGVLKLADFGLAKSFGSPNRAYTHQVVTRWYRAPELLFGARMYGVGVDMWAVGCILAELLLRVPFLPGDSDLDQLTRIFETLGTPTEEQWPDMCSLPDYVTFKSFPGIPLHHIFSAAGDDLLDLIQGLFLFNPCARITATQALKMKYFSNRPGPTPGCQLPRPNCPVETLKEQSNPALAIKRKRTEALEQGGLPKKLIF
Chain of CDK7/Cyclin H (P51946 whole entry partner): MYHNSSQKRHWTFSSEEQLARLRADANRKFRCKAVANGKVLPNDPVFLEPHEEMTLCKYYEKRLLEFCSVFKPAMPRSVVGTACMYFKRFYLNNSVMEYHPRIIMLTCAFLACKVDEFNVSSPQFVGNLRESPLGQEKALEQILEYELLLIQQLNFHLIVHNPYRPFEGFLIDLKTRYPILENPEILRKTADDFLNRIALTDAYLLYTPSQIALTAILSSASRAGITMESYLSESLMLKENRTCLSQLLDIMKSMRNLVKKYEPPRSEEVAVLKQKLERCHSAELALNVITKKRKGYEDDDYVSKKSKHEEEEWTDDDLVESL
Chain of CDK7/Cyclin H (P51948 whole entry partner): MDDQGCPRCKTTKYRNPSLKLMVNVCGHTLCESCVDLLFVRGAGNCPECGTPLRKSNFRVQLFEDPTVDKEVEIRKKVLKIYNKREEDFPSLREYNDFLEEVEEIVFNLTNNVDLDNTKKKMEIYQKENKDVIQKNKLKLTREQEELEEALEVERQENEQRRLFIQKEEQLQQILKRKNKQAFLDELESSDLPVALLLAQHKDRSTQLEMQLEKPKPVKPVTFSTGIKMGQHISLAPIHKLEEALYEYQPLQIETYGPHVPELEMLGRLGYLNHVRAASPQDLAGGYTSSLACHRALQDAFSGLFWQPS
Chain of CDK6/Cyclin D3 (Q00534 whole entry): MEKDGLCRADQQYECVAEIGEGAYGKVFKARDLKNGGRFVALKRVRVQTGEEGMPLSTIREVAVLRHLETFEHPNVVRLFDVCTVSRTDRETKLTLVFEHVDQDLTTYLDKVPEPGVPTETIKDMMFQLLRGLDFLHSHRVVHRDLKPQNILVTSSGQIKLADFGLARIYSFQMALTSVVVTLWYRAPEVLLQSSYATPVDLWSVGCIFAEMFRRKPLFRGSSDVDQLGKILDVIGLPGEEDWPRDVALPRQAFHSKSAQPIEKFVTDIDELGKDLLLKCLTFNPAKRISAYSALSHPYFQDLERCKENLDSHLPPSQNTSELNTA
Chain of CDK6/Cyclin D3 (P30281 whole entry partner): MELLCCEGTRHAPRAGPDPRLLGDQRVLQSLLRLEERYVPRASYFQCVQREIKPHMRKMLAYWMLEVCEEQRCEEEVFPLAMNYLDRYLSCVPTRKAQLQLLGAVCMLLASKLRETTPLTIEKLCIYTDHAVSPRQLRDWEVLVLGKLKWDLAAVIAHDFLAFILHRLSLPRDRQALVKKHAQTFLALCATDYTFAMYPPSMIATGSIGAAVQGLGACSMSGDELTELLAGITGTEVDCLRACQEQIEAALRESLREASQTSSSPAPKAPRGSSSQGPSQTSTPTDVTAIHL
Chain of CDK5/p35 (Q00535 whole entry): as the sequence (Q00535 whole entry) above
Chain of CDK5/p35 (Q15078 whole entry partner): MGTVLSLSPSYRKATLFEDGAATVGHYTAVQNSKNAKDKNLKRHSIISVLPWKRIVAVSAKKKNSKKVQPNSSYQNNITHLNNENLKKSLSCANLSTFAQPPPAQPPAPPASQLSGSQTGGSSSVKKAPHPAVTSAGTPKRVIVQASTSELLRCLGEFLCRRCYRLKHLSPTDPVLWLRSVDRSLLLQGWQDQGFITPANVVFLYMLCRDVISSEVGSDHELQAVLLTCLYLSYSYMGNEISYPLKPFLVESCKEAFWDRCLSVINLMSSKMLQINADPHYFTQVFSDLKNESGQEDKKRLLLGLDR
Chain of CDK9/Cyclin T (P50750 whole entry): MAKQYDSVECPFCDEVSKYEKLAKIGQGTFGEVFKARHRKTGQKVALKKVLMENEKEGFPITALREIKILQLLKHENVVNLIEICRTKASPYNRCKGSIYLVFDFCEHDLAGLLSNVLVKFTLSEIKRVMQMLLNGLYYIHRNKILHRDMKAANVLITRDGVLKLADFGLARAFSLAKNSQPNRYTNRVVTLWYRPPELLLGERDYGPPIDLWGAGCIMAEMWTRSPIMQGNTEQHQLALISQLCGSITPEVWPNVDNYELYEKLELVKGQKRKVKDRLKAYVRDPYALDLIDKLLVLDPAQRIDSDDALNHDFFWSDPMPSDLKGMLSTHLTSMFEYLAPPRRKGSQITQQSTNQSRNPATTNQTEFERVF
Chain of CDK9/Cyclin T (O60563 whole entry partner): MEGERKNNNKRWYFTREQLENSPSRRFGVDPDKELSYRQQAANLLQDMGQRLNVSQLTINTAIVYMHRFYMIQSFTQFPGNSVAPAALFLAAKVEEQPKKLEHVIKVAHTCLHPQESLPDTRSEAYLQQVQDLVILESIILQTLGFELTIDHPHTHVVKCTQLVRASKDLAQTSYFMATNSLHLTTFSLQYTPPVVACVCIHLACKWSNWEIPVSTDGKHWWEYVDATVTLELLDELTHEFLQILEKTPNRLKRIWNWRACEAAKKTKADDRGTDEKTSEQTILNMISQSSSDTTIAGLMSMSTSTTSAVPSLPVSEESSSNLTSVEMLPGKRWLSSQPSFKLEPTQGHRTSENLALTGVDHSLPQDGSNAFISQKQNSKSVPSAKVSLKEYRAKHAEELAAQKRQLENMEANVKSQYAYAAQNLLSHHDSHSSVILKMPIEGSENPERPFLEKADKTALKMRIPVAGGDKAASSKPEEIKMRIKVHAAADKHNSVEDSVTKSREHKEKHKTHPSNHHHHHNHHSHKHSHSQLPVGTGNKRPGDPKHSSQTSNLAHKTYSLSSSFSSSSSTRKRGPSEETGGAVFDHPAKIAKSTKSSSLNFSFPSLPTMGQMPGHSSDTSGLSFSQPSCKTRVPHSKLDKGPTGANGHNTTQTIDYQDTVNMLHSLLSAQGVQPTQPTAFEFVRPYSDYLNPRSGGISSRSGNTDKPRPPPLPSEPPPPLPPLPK
Chain of CDK1/Cyclin B1 (P06493 whole entry): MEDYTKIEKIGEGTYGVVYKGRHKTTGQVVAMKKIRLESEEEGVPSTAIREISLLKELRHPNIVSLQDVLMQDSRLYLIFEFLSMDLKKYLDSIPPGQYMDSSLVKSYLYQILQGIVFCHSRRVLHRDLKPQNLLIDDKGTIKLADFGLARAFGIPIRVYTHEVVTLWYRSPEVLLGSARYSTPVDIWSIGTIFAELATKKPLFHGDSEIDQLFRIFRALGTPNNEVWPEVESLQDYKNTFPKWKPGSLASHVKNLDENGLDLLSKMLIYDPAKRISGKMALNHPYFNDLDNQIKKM
Chain of CDK1/Cyclin B1 (P14635 whole entry partner): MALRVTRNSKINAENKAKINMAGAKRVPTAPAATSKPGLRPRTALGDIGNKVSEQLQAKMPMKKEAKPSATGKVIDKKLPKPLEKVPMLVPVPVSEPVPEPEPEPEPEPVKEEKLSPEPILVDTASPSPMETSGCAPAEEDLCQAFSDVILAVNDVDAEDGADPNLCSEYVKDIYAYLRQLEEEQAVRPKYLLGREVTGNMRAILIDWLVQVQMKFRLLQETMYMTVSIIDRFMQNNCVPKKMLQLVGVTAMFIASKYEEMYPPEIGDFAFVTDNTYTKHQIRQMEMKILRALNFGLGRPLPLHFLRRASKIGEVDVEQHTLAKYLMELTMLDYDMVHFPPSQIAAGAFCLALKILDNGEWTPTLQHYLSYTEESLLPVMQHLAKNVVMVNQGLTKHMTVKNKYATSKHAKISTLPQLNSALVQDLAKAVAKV

`C[C@H]1CC[C@@H](Nc2ncc3cc4n(c3n2)C2(CCCCC2)CN=C4)CC1` [Compound 53, N-((1s,4s)-4-methylcyclohexyl)-8′H-spiro[cyclohexane-1,9′-pyrazino[1′,2′:1,5]pyrrolo[2,3-d]pyrimidin]-2′-amine]: the IC50 on CDK2/Cyclin E was determined as 480 nM; at CDK6/Cyclin D3, 9000 nM; against CDK3/Cyclin E, 850 nM; on CDK9/Cyclin T, 890 nM; against CDK5/p35, 1500 nM; against CDK1/Cyclin B1 it was 1500 nM. For the same compound, the IC50 is 670 nM against CDK2/Cyclin A, 1500 nM on CDK5/p25, 2900 nM against CDK4/Cyclin D1 and 4600 nM at CDK7/Cyclin H.
As for `O=C1NCC2(CCCCC2)n2c1cc1cnc(N[C@H]3CC[C@H](NC4CCOCC4)CC3)nc12` [Compound 16, 2′-(((1r,4r)-4-((tetrahydro-2H-pyran-4-yl)amino)cyclohexyl)amino)-7′,8′-dihydro-6′H-spiro[cyclohexane-1,9′-pyrazino[1′,2′:1,5]pyrrolo[2,3-d]pyrimidin]-6′-one], the IC50 worked out at 190 nM on CDK2/Cyclin E; 72 nM at CDK6/Cyclin D3; 240 nM at CDK3/Cyclin E; 2.7 nM against CDK9/Cyclin T; 470 nM at CDK5/p35; 91 nM at CDK1/Cyclin B1. The IC50 against CDK2/Cyclin A was found to be 110 nM; against CDK5/p25, 480 nM; against CDK4/Cyclin D1 it was 13 nM; on CDK7/Cyclin H it was 170 nM.
With `O=C1NCC2(CCCCC2)n2c1cc1cnc(N[C@H]3CCCNC3)nc12` [Compound 47, (S)-2′-(piperidin-3-ylamino)-7′,8′-dihydro-6′H-spiro[cyclohexane-1,9′-pyrazino[1′,2′:1,5]pyrrolo[2,3-d]pyrimidin]-6′-one], the IC50 at CDK2/Cyclin E is 550 nM; against CDK6/Cyclin D3 it was 370 nM; on CDK3/Cyclin E, 110 nM; on CDK9/Cyclin T it was 2.6 nM; against CDK5/p35, 250 nM; against CDK1/Cyclin B1, 170 nM. Also, the IC50 worked out at 350 nM on CDK2/Cyclin A, 230 nM at CDK5/p25, 130 nM at CDK4/Cyclin D1 and 27 nM against CDK7/Cyclin H.
As to `CN1CCN([C@H]2CC[C@@H](Nc3ncc4cc5n(c4n3)C3(CCCCC3)CNC5=S)CC2)CC1` [Compound 39, 2′-(((1s,4s)-4-(4-methylpiperazin-1-yl)cyclohexyl)amino)-7′,8′-dihydro-6′H-spiro[cyclohexane-1,9′-pyrazino[1′,2′:1,5]pyrrolo[2,3-d]pyrimidine]-6′-thione], the IC50 came to 300 nM against CDK2/Cyclin E; 48 nM against CDK6/Cyclin D3; 420 nM on CDK3/Cyclin E; 13 nM at CDK9/Cyclin T; 1500 nM at CDK5/p35; 1200 nM on CDK1/Cyclin B1. The IC50 on CDK2/Cyclin A was 140 nM; against CDK5/p25, 1600 nM; at CDK4/Cyclin D1 it was 9.5 nM; on CDK7/Cyclin H, 500 nM.
Regarding `CS(=O)(=O)N[C@H]1CC[C@H](Nc2ncc3cc4n(c3n2)C2(CCCCC2)CNC4=O)CC1` [Compound 22, N-((1,4-trans)-4-((6′-oxo-7′,8′-dihydro-6′H-spiro[cyclohexane-1,9′-pyrazino[1′,2′:1,5]pyrrolo[2,3-d]pyrimidin]-2′-yl)amino)cyclohexyl)methanesulfonamide], the 50% inhibitory concentration (IC50) against CDK2/Cyclin E worked out at 190 nM; against CDK6/Cyclin D3, 350 nM; against CDK3/Cyclin E it was 510 nM; against CDK9/Cyclin T it was 56 nM; against CDK5/p35, 170 nM; on CDK1/Cyclin B1, 410 nM. Besides, the IC50 was 78 nM against CDK2/Cyclin A, 230 nM against CDK5/p25, 69 nM against CDK4/Cyclin D1 and 3400 nM at CDK7/Cyclin H.
For the compound `O=C1NCC2(CCCCC2)n2c1cc1cnc(N[C@H]3C[C@@H](O)CNC3=O)nc12` [Compound 7, 2′-(((3S,5R)-5-hydroxy-2-oxopiperidin-3-yl)amino)-7′,8′-dihydro-6′H-spiro[cyclohexane-1,9′-pyrazino[1′,2′:1,5]pyrrolo[2,3-d]pyrimidin]-6′-one], the IC50 against CDK2/Cyclin E is > 100000 nM; against CDK6/Cyclin D3, 5600 nM; against CDK3/Cyclin E, > 100000 nM; against CDK9/Cyclin T it was 3400 nM; against CDK5/p35 it was > 100000 nM; at CDK1/Cyclin B1 it was > 100000 nM. In addition, the IC50 against CDK2/Cyclin A is 65000 nM; against CDK5/p25, > 100000 nM; at CDK4/Cyclin D1 it was 820 nM; against CDK7/Cyclin H it was > 100000 nM.
On to `C[C@H]1CC[C@H](Nc2ncc3cc4n(c3n2)C2(CCCCC2)CN=C4)CC1` [Compound 54, N-((1r,4r)-4-methylcyclohexyl)-8′H-spiro[cyclohexane-1,9′-pyrazino[1′,2′:1,5]pyrrolo[2,3-d]pyrimidin]-2′-amine], for which the IC50 amounted to 260 nM at CDK2/Cyclin E; 2000 nM against CDK6/Cyclin D3; 640 nM against CDK3/Cyclin E; 600 nM at CDK9/Cyclin T; 740 nM at CDK5/p35; 1700 nM against CDK1/Cyclin B1. Also, the IC50 against CDK2/Cyclin A was determined as 420 nM; at CDK5/p25, 660 nM; against CDK4/Cyclin D1, 670 nM; against CDK7/Cyclin H it was 3600 nM.
